Data: PubChem BioAssay AID2305 (GlaxoSmithKline (GSK), 2010)
Several values for one entry are separate records, joined by “and”; a condition that tells them apart may be missing. Equal entries are not always repeated.

Each compound was assayed on P. falciparum 3D7 growth, pLDH absorbance (assay: P. falciparum 3D7 growth inhibition, dose response, strain 3D7 (AID 2305)).

| Compound | IC50 |
| --- | --- |
| FC(F)(F)c1cccc(Nc2nc3nonc3nc2NC2C3CC4CC(C3)CC2C4)c1 (centres undefined) | 660 nM |
| CCOc1ccc(NC(=O)c2ccc(CN3CCCN(Cc4cccc(O)c4)CC3)cc2)cc1 | 1310 nM |
| COc1ccc2ncc(F)c(CCN3C[C@H](CNCc4ccc(F)cc4)[C@H](O)C3)c2n1 | 820 nM |
| CCOc1cc(Cc2cnc(N)nc2N)cc(OC)c1OC | 910 nM |
| c1cncc(-c2cccc(CNc3nccc(Nc4ccc(OCCN5CCOCC5)cc4)n3)c2)c1 | 1060 nM |
| Oc1ccc2[nH]c(-c3cccc(F)c3)nc2c1CNCc1ccccc1 | 920 nM |
| Cc1ccc(F)c(NC(=O)c2c(-c3c(F)cccc3Cl)noc2C)c1 | 930 nM |
| O=C(Nc1cccc(-c2ccc(-c3nc4ccc(C(F)(F)F)cc4[nH]3)s2)c1)c1cccnc1 | 360 nM |
| CS(=O)(=O)c1ccc(-n2nc(C(F)(F)F)cc2-c2ccc(/C=N/OCC(=O)O)o2)cc1 | 980 nM |
| COc1ccc(Cl)cc1N1CCN(CCCNC(=O)c2ccc(-c3nc4cc5ccccc5cc4[nH]3)c(F)c2)CC1 | 800 nM |
| COC(=O)c1ccc(CC(C)NCC(O)c2cccc(C(F)(F)F)c2)c(Cl)c1 (centres undefined) | 850 nM |
| CC(C)(CNC(=O)/C=C/c1ccc(C(F)(F)F)cc1)CNc1cc(=O)c2ccccc2[nH]1 | 910 nM |
| CC1CN(c2cc(=O)n(Cc3ccc(NC(=O)Nc4ccc(-c5ccccc5)cc4)cc3)cn2)CC(C)N1 (centres undefined) | 970 nM |
| O=C(Nc1cccc(CN2CCCN(Cc3ccc(O)cc3)CC2)c1)c1cc(F)cc(F)c1 | 660 nM |
| Cc1cc(-c2cccc3c(NC(=O)N4CCc5cc6nccc(N7CCN8CCC[C@H]8C7)c6cc54)cccc23)cc(C)n1 | 490 nM |
| CCn1cnc2c(N3CCCC3=O)cc(C(=O)N[C@@H](Cc3ccccc3)[C@H](O)CNC3CCCCC3)cc21 | 570 nM |
| Cc1cc(CNCCCCCNCc2ccc(Cl)cc2)ccc1O | 710 nM |
| COc1ccc(C2CCN(CCN3CCC(NC(=O)c4ccc(-c5cccc(C(F)(F)F)c5C(F)(F)F)cc4)CC3)CC2)c(OC)c1 | 420 nM |
| FC(F)(F)c1ccc2nc(-c3ccc(-c4ccc(CNCc5ccccc5)cc4)cc3)[nH]c2c1 | 140 nM |
| CCN1CCC(N(Cc2ccc(-c3ccc(C(F)(F)F)cc3)cc2)C(=O)Cn2c(CCc3cccc(F)c3F)cc(=O)c3ccccc32)C1 (centres undefined) | 1010 nM |
| O=C(Nc1ccccc1)c1cnc[nH]1 | 990 nM |
| COc1cc2c(cc1C(F)(F)F)N(C(=O)Nc1cc(OC(F)(F)F)cc(-c3cccnc3)c1)CC2 | 40 nM |
| CC(CN1CCN(C)CC1)C(=O)Nc1ccc(-c2ccc(-c3nc4ccccc4[nH]3)cc2)cc1 (centres undefined) | 950 nM |
| CC(C)[C@H](NC(=O)c1ccc(O)c(-c2ccc(Cl)c(Cl)c2)c1)C(=O)NCCN1CCCC1 | 930 nM |
| Cc1ccc(NCC(=O)Nc2ccc(F)c(Cl)c2)cc1S(=O)(=O)N1CCOCC1 | 60 nM |

| Compound | IC50 |
| --- | --- |
| CCC/C=C/c1c(CNCCCNc2cc(=O)c3ccccc3[nH]2)sc(CC)c1Br | 890 nM |
| COc1cc2c(Nc3cccc(NC(=O)c4ccccc4)c3)ncnc2cc1OCCCN1CCOCC1 | 150 nM |
| FC(F)(F)c1ccc2nc(-c3ccc(-c4cccc(CN5CCC(CCN6CCCCC6)CC5)c4)cc3)[nH]c2c1 | 150 nM |
| COc1cc2nc(N3CCN(C(=O)c4ccc(N(C(=O)OC(C)(C)C)C(=O)OC(C)(C)C)cc4)CC3)nc(N)c2cc1OC | 1000 nM |
| CN1CCc2ccc(NC(=O)Nc3cccc(C(=O)c4ccccc4)c3)cc2C1 | 920 nM |
| Cc1ccc(O)cc1Nc1ccnc2cc(-c3nccs3)ccc12 | 880 nM |
| COc1ccc(NC(=O)Nc2cccc(-c3cccc(-c4nc5c(C)cccc5[nH]4)c3)c2)cc1 | 400 nM |
| Cn1cccc1C(=O)NCC(CCNc1cc(=O)c2ccccc2[nH]1)NCc1cc(Br)cc(Br)c1 (centres undefined) | 910 nM |
| CNCCNCc1ccc(-c2ccc(-c3nc4ccc(F)cc4[nH]3)cc2)cc1 | 390 nM |
| Cc1cc(OCCCNc2nc(NCCc3ccc(O)cc3)nc(N3CCNCC3)n2)c(Cl)c(C)c1Cl | 960 nM |
| COc1ccc(CON2C(N)=NC(N)=NC2(C)C)cc1OC | 10 nM |
| COc1cc2c(cc1COc1ccccc1)CCN1Cc3cc(OC)c(OC)cc3CC21 (centres undefined) | 150 nM |
| NS(=O)(=O)c1ccccc1Nc1nc(Nc2ccc(N3CCOCC3)cc2)nc2c1CCC2 | 670 nM |
| O=C(NC1CCN(CC2(c3ccc(Cl)cc3)CCC2)CC1)c1ccn[nH]1 | 420 nM |
| CN1CCN(c2ccnc3ccc(NC(=O)Nc4ccc(-c5ccccc5)cc4)cc23)CC1 | 780 nM |
| COc1ccc(NC(=O)Nc2ccc(-c3ccncc3)c(C(F)(F)F)c2)cc1N1CCN(C)CC1 | 760 nM |
| Cc1cc(NN=Cc2ccccc2F)c2cccc(C)c2n1 | 760 nM |
| CCCCCCN=C(N)c1ccc2nc(-c3ccc(O)cc3)[nH]c2c1 | 190 nM |
| NCCCNc1ccc(-c2ccc(NC(=O)Nc3cc(C(F)(F)F)ccc3F)cc2)cn1 | 840 nM |
| CCN1CCCC1CNC(=O)c1cc2c(-c3ccc(Cl)cc3)nn(C)c2s1 (centres undefined) | 790 nM |
| O=C(Nc1cccc(CN2CCCN(Cc3cccnc3)CC2)c1)c1cc2ccccc2s1 | 1470 nM |
| Cc1cc(C(=O)Nc2ccc3c(c2)CCN3C2CCN(Cc3csc4ccccc34)C2)no1 (centres undefined) | 120 nM |
| Brc1cnc(NC2=NCCN2)c(Br)c1 | 340 nM |
| Cc1ccc(Nc2ccnc3ccc(C(F)(F)F)cc23)cc1O | 960 nM |
| COc1ccccc1CCNc1nc(C)cc(N[C@@H](CC(C)C)C(=O)Nc2ccccc2)n1 | 1280 nM |

| Compound | IC50 |
| --- | --- |
| CCCC1N=C(N)N=C(N)N1c1ccc(OC)cc1 (centres undefined) | 230 nM |
| Fc1ccc(Nc2ccnc3cc(-c4ccc(CN5CCOCC5)o4)ccc23)c(Cl)c1 | 760 nM |
| O=C(CSc1ccc(Cl)cc1)NC1CCC(CN2CCC(c3c[nH]c4ccccc34)CC2)CC1 (centres undefined) | 930 nM |
| CCN(CC)CCN(Cc1ccc(-c2ccc(C(F)(F)F)cc2)cc1)C(=O)Cn1c(SCc2ccc(F)cc2)cc(=O)c2ccccc21 | 750 nM |
| O=C(C=Cc1ccc(-c2ccccc2)cc1)NC1CCC(CN2CCC(c3c[nH]c4ccccc34)CC2)CC1 (centres undefined) | 810 nM and 740 nM |
| CN(Cc1ccccc1)C1CCCN(c2cc(NC(=O)c3ccc(F)cc3)ccn2)C1 (centres undefined) | 990 nM |
| CC(=O)NCCNCc1cccc(C(=O)NCc2cccc(C(F)(F)F)c2)c1 | 1080 nM |
| COc1ccc(NC(=O)c2ccc(-c3nc(-c4ccc(Cl)cc4)cs3)cc2)cc1N1CCN(C)CC1 | 920 nM |
| N#Cc1ccc2c(c1)CCN(CCC1CCC(Nc3ncnc4ccccc34)CC1)C2 (centres undefined) | 630 nM |
| Cc1ccc2[nH]c(C)c(Br)c(=O)c2c1 | 810 nM |
| CCCCOc1ccccc1C(=O)NCc1csc(-c2ccccc2)n1 | 560 nM |
| O=C(Nc1ccc(OCc2ccccc2)cc1)c1nc2ccccc2nc1Cl | 250 nM |
| CC(C)(C)c1ccc(NC(=O)c2ccc(CN3CCCN(Cc4cccc(O)c4)CC3)cc2)cc1 | 670 nM |
| COc1cccc(C(=O)NCCc2cccc(Cl)c2)c1Oc1ccccc1 | 840 nM |
| CCNc1cc(C(=O)N[C@@H](Cc2ccccc2)[C@H](O)CNC(C)(C)CC(C)(C)C)c(F)c(N2CCCCS2(=O)=O)c1 | 1010 nM |
| CC1CCN(CCCNc2ccc(C(=O)Nc3ccc(C(F)(F)F)cc3)cc2[N+](=O)[O-])CC1 | 340 nM |
| CN1CCN(c2ccc(CNc3ccc4ncc(-c5cccc(OC(F)(F)F)c5)n4n3)cc2)CC1 | 860 nM |
| Cc1[nH]c2ccccc2c(=O)c1-c1ccc(Cl)cc1 | 1000 nM |
| Clc1ccc(-c2cnc3ccc(NCCc4cccnc4)nn23)cc1 | 860 nM |
| CC(C)c1ccc(O)cc1Nc1ccnc2ccc(C(F)(F)F)cc12 | 680 nM |
| CS(=O)(=O)c1ccccc1CNC(=O)c1cccc(-c2ccc(-c3nc4ccc(C(F)(F)F)cc4[nH]3)cc2)c1 | 810 nM |
| Cc1ccc2nc(C)n(C3CCN(C(=O)Cc4ccccc4C)CC3)c2c1 | 240 nM |
| CCCCC(=O)N(CCOC)Cc1ccc(-c2ccc(CNCCC)cn2)cc1 | 730 nM |
| COc1c(C2CCN(CCCCNC(=O)c3ccc(-c4ccc(Cl)cc4)c(OCC(N)=O)c3)CC2)ccc2c1CCCC2 | 1010 nM |
| FC(F)(F)c1ccc2nccc(NN=Cc3ccc(Cl)cc3)c2c1 | 790 nM |

| Compound | IC50 |
| --- | --- |
| CCN(CC)CCNC(=O)c1ccc(Nc2ncc([N+](=O)[O-])c(Nc3ccccc3OC)n2)cc1 | 140 nM |
| Cc1ccc(NS(=O)(=O)c2ccc(-c3ccccc3)cc2)c(Cn2cnc(N3CCCNCC3)cc2=O)c1 | 860 nM |
| C[C@H](Cc1ccc(OCCCCCCOc2ccc(C[C@@H](C)NC[C@H](O)c3cccc(Cl)c3)cc2)cc1)NC[C@H](O)c1cccc(Cl)c1 | 300 nM |
| NC(=O)c1c(Cl)nc2ccccc2c1Cl | 960 nM |
| COC(=O)c1cc(OC)c(OC)cc1NC(=O)NC12CC3CC(CC(C3)C1)C2 | 880 nM |
| O=C(COc1ccccc1Cc1ccccc1)Nc1cc(Cl)ccc1-n1cncn1 | 640 nM |
| COc1ccc2c(c1)CC(NCc1ccc(-c3ccc4nc[nH]c4c3)cc1)C2 (centres undefined) | 880 nM |
| COc1c(C2CCN(CCCCNC(=O)c3ccc(-c4ccc(C#N)cc4)nc3)CC2)ccc2c1CCCC2 | 530 nM |
| ON=C1CCc2cc(-c3nc(-c4cccc(OCCNCc5ccc(F)cc5)c4)[nH]c3-c3ccncc3)ccc21 | 890 nM |
| CN1CCN(c2ccc(Cl)cc2NC(=O)C2COc3ccccc3O2)CC1 (centres undefined) | 810 nM |
| CCOC(=O)COc1cccc(CNc2ccc3nc(N)nc(N)c3c2)c1 | 410 nM |
| O=C(Nc1ccc(Oc2ccccc2)cc1)N(CCN1CCCC1)Cc1ccc(-c2ccc(CN3CCNCC3)cc2)cc1 | 890 nM |
| O=C(Nc1ccc(C(F)(F)F)cc1)Nc1cccc([N+](=O)[O-])c1 | 870 nM |
| COc1cc(NC(=O)N2CCc3ccc(OCCN4CCCCC4)cc32)cc(C(F)(F)F)c1 | 270 nM |
| CCOc1cc2ncnc(Nc3ccc(OCc4ccccc4F)c(Cl)c3)c2cc1OCC | 600 nM |
| Cc1cc2ncn(-c3nccc(NCc4ccc(F)c(C)c4)n3)c2cc1C | 990 nM |
| CC1(C)N=C(N)N=C(N)N1c1cccc(C(F)(F)F)c1 | 10 nM |
| Cc1cc(N(CCN2CCCCC2)CCN2CCCCC2)nc(Nc2ccc(Cl)cc2)n1 | 270 nM |
| NC1CCN(CCNCc2cccc(-c3ccc(-c4nc5ccc(C(F)(F)F)cc5[nH]4)cc3)c2)C1 (centres undefined) | 890 nM |
| O=C(NC1CCN(c2ccnc3cc(Cl)ccc23)C1)c1cccc(F)c1 (centres undefined) | 180 nM |
| O=c1c2ccccc2nc(C=Cc2ccc([N+](=O)[O-])cc2)n1-c1ccccn1 | 380 nM |
| CCNc1cc(C(=O)N[C@@H](Cc2ccccc2)[C@H](O)CNC23CCC(CC2)CC3)cc(N2CCCCS2(=O)=O)c1 | 60 nM |
| Cc1ccc(S(=O)(=O)/N=C(\N)NC(N)=O)cc1 | 790 nM |
| O=C(NCC1CC1)C1CCN(C(c2ccccc2)c2ccc(Cl)c(Cl)c2)CC1 (centres undefined) | 370 nM |
